Source: US20140322139A1, “STABILIZATION OF X-RAY DIAGNOSTIC COMPOSITION” (GE HEALTHCARE AS, priority 2011, published 2014)

Tests used:
[1] = Physical stability study: visual inspection for crystallisation during storage; assay type: physicochemical; settings: conclusion from the storage study of Ioforminol/Visipaque mixtures
Procedure: Formulated Ioforminol (320 mg I/ml) and Visipaque (Iodixanol 320 mg I/ml) were filled on 100 ml glass vials in mixtures with ratios according to Table 1. The filling was performed by using a Flexicon PF5 peristaltic pump. The vials were sealed by closures comprising stoppers and overlying caps. The vials were split into two populations, one that was subjected to heat steam sterilisation at 121° C. (autoclaving) for 20 minutes and one that was used without further treatment.
The autoclaved and non-autoclaved samples of different mixtures were placed on storage at 25, 40 and 60° C. respectively. The samples were subjected to visual inspection weekly for the first 5 weeks before inspection was carried out monthly.

[2] = Dissolution temperature of ioforminol in water for injection; assay type: physicochemical; settings: water for injection as the solvent, concentration range 270-380 mg I/ml

Row | inhibition of primary nucleation [1] | dissolution temperature [2] | SMILES
1 | potent inhibitor of primary nucleation |  | CC(=O)N(CC(O)CN(C(C)=O)c1c(I)c(C(=O)NCC(O)CO)c(I)c(C(=O)NCC(O)CO)c1I)c1c(I)c(C(=O)NCC(O)CO)c(I)c(C(=O)NCC(O)CO)c1I (centres unmarked) [Iodixanol]
2 |  | ~110 °C | O=CN(CC(O)CN(C=O)c1c(I)c(C(=O)NCC(O)CO)c(I)c(C(=O)NCC(O)CO)c1I)c1c(I)c(C(=O)NCC(O)CO)c(I)c(C(=O)NCC(O)CO)c1I (centres unmarked) [Ioforminol, 5-[formyl-[3-[formyl-[3,5-bis(2,3-dihydroxypropylcarbamoyl)-2,4,6-triiodophenyl]amino]-2-hydroxypropyl]amino]-N,N′-bis(2,3-dihydroxypropyl)-2,4,6-triiodobenzene-1,3-dicarboxamide]
